According to patent US20090291999A1, “Agent Exhibiting a Neurotropic, Neuromodulator, Cerebrovascular and Anti-Stroke Activity” (AKHAPKINA, Valentina Ivanovna, priority 2006, published 2009):
Marks after values point to notes of the source that are not given here.

Columns and labels:
[1] = tested on: rats with hemorrhagic stroke (intracerebral post-traumatic hematoma); test: Hemorrhagic stroke model: conditioned reflex of passive avoidance (CRPA); conditions: for Latent time of entering into a dark chamber / Number of rats which did not entered a dark chamber: HS rats, 100 mg/Kg
Description: (§1) Experiments have been conducted on white outbred male rats having weights from 200 to 250 grams. The rats have been held in vivarium conditions with free access to meals and water, under the natural change of days and nights. For the purpose of generating hemorrhagic stroke (HS) in rats narcotized with chloral hydrate (400 mg/Kg) stereotaxic craniotomy was conducted and then brain tissue in the capsula interna area was destructed with a mandarin knife, and blood (0.02 to 0.03 mL) taken under a rat tongue was injected into the place of destruction. Thus, local autohemorrhagic bilateral stroke was generated in the capsula interna area (diameter 2 mm, depth 3 mm) without damaging the above-located brain formations and neocortex. Falsely operated animals and animals with HS fed with a saline were used as the control animals. Intragastric administration of Phenotropil at a dose of 100 mg/Kg was performed with the use of a special tube in 5 hours after the operation and then daily for 7 days at the time of the day±3 minutes.
(§2) The Phenotropil influence was evaluated for survivability of the animals, for the neurologic deficit level on the McGrow stroke-index scale in the modification of I. V. Gannushkina (1977) and in the Rotarod test, for muscular tonus maintenance in the test of chinning up on a horizontal bar, for orientation and exploration behavior in the open-field test. Study of cognitive functions was conducted on a standard unit for conditioned reflex of passive avoidance (CRPA). A test for CRPA repetition (for maintenance of a memory trail) was conducted in 24 hours after training as well as on the 3rd, 7th and 14th days after the operation. The latent time of the first entering in a dark chamber was registered when the burrow reflex maintenance was evaluated.

[2] = tested on: rats with hemorrhagic stroke (intracerebral post-traumatic hematoma); test: Hemorrhagic stroke model: neurologic deficit on McGrow's scale; conditions: HS rats, 100 mg/Kg internally; 1 day after operation
Description: as §1, §2

[3] = tested on: rats with hemorrhagic stroke (intracerebral post-traumatic hematoma); test: Hemorrhagic stroke model: survivability of animals
Description: (§3) Experiments have been conducted on white outbred male rats having weights from 200 to 250 grams. The rats have been held in vivarium conditions with free access to meals and water, under the natural change of days and nights. For the purpose of generating hemorrhagic stroke (HS) in rats narcotized with chloral hydrate (400 mg/Kg) stereotaxic craniotomy was conducted and then brain tissue in the capsula interna area was destructed with a mandarin knife, and blood (0.02 to 0.03 mL) taken under a rat tongue was injected into the place of destruction. Thus, local autohemorrhagic bilateral stroke was generated in the capsula interna area (diameter 2 mm, depth 3 mm) without damaging the above-located brain formations and neocortex. Falsely operated animals and animals with HS fed with a saline were used as the control animals. […]
The Phenotropil influence was evaluated for survivability of the animals, for the neurologic deficit level on the McGrow stroke-index scale in the modification of I. V. Gannushkina (1977) and in the Rotarod test, for muscular tonus maintenance in the test of chinning up on a horizontal bar, for orientation and exploration behavior in the open-field test. […] The latent time of the first entering in a dark chamber was registered when the burrow reflex maintenance was evaluated.

[4] = tested on: rats with hemorrhagic stroke (intracerebral post-traumatic hematoma); test: Hemorrhagic stroke model: burrow reflex; conditions: HS rats, one-time administration; 1 day after operation
Description: as §3
The Phenotropil influence was evaluated for survivability of the animals, for the neurologic deficit level on the McGrow stroke-index scale in the modification of I. V. Gannushkina (1977) and in the Rotarod test, for muscular tonus maintenance in the test of chinning up on a horizontal bar, for orientation and exploration behavior in the open-field test. […] The latent time of the first entering in a dark chamber was registered when the burrow reflex maintenance was evaluated. […]

Toxicity (LD30) = conditions: in vivo
[5] = tested on: rats with hemorrhagic stroke (intracerebral post-traumatic hematoma); test: Hemorrhagic stroke model: open-field orientation-and-exploratory behavior; conditions: for Exploration of holes / Horizontal motion activity / Total index / Vertical motion activity: HS + Phenotropil
Description: as §1, §2

[6] = Metabolism and excretion in the organism; conditions: in vivo
[7] = repetition of the CRPA in 3 days
[8] = repetition of the CRPA in 7 days
[9] = repetition of the CRPA in 14 days

## NC(=O)CN1CC(c2ccccc2)CC1=O (centres unmarked) [Phenotropil, N-carbomoyl-methyl-4-phenyl-2-pyrrolidon]
[1]; 100 mg/Kg one-time administration 5 hours after operation, CRPA one day after training
  Increase of the latent time of entering the dark chamber in comparison to the HS-group: 48%
[1]; 100 mg/Kg one-time administration 5 hours after operation, after one day
  Increase of the number of animals with maintained memory in comparison to the HS-group: 60%
[1]; repetition of the CRPA in 24 hours after training
  Latent time of entering into a dark chamber: 101.1 ± 24.2 s
[1]; repetition of the CRPA in 24 hours after training, 100 mg/kg
  Number of rats which did not entered a dark chamber: 40%
[1]; [7]
  Latent time of entering into a dark chamber: 98.3 ± 18.7 s
  Number of rats which did not entered a dark chamber: 40** %
[1]; [8]
  Latent time of entering into a dark chamber: 75.2 ± 24.1 s
  Number of rats which did not entered a dark chamber: 30** %
[1]; [9]
  Latent time of entering into a dark chamber: 83.2 ± 26.7 s
  Number of rats which did not entered a dark chamber: 40** %
[2]
  Number of animals with flabbiness, slowness of motions: 50%
  Number of animals with paresis of 1-4 limbs: 30%
  Number of animals with weakness of limbs: 40* %
[3]; 100 mg/Kg once a day for 7 days, 14 days of observation
  Effect on death of the animals: completely prevented death of the animals
[3]; hemorrhagic stroke, 100 mg/Kg
  Cases in which death of animals was prevented: 100%
[4]
  Latent time of entering into a dark chamber during training in the burrow reflex: 30.6 ± 8.8
Toxicity (LD30)
  LD30: 800 mg/kg
[5]; 1st day after operation
  Exploration of holes: 1.3 ± 0.5
  Horizontal motion activity: 8.8 ± 3.5
  Total index: 14.5 ± 5.5
  Vertical motion activity: 4.4 ± 2.1
[5]; 3rd day after operation
  Exploration of holes: 1.9 ± 0.7
  Horizontal motion activity: 15.2 ± 5.4
  Total index: 21.6 ± 6.1
  Vertical motion activity: 4.5 ± 1.5
[5]; 7th day after operation
  Exploration of holes: 4.6 ± 1.3
  Horizontal motion activity: 20.9 ± 4.1
  Total index: 36.4 ± 5.6
  Vertical motion activity: 10.9 ± 3.2
[5]; 14th day after operation
  Exploration of holes: 3.0 ± 0.7
  Horizontal motion activity: 12.2 ± 2.8
  Total index: 22.1 ± 3.5
  Vertical motion activity: 6.9 ± 1.9
[5]; registered in 7 days
  Increase of total index of motion behavior compared to rats of the HS group: 2.7 times
[6]
  Metabolism in the organism: not metabolized in the organism and goes out of it in the unchanged form
